Source: patent US10391181B2, “Cyclodextrin and antibody-drug conjugate formulations” (priority 2013, dated 2019)

Assay: Clearance of PBD drug-linker from conjugation reaction mixture by tangential flow filtration (constant volume diafiltration)
Conditions: Example 8; without cyclodextrin; Tris, NaCl and 50% propylene glycol; clearance stalling after four diavolumes
Protocol: The diafiltration (DF) process used an 88 cm^2 Ultracel Pellicon 3 cassette from Millipore with a 30 kD molecular weight pore size. The batch volume for the DF was 250 mL, the feed flow rate was 40 ml/min throughout the process, and the retentate valve was adjusted to maintain a trans-membrane pressure of ˜20 psi. The diafiltration buffer addition rate to maintain constant batch volume started at 9 mL/min, but was maintained at 13-14 ml/min through most of the process. Samples were removed after the completion of each diavolume. The concentration of hpb-CD was measured in each sample using an RP HPLC assay with evaporative light scattering detection.
This mixture was brought to 10 w/v % hpb-CD by addition of 25% volume of a 50 w/v % solution of hpb-CD in 50 mM Tris/5 mM EDTA, pH 8.0. […] The concentration of quenched drug-linker was determined in each sample. […] C and C0 are concentrations of the analyte measured, N is the number of diavolumes, and S is the sieving factor, defined as the analyte concentration on the permeate side of the membrane divided by the analyte concentration on the retentate side of the membrane. […]
The TFF process was performed on quenched conjugation reaction mixture using a 30 kD MW cutoff 0.1 m^2 Ultracel Pellicon 3 membrane (Millipore). […] The concentration of quenched PBD drug-linker was determined in each sample. […]

COc1ccc(C2=CN3C(=O)c4cc(OC)c(OCCCOc5cc6c(cc5OC)C(=O)N5C=C(c7ccc(NC(=O)[C@H](C)NC(=O)[C@@H](NC(=O)CCCCCN8C(=O)CC(SCC(NC(C)=O)C(=O)O)C8=O)C(C)C)cc7)C[C@H]5C=N6)cc4N=C[C@@H]3C2)cc1 (stereo partly shown) [compound 4]
benzodiazepine drug-related impurity remaining in the mixture: 1.1 µM
